pIC50: −log10 of the molar value.
Target: Mushroom tyrosinase
Test: o-diphenolase assay of mushroom tyrosinase, L-DOPA substrate, DOPAchrome absorbance at […] nm
Format: biochemical

SMILES	pIC50
CC(=O)OC[C@]12[C@H](OC(C)=O)[C@H](O)C[C@H](C)[C@]1(OC(C)=O)[C@@H](OC(C)=O)[C@@H](C(C)(C)O)C[C@H]2OC(=O)c1ccccc1 (relative stereo) [compound 1, 1β,5α,6α,14-tetraacetoxy-9α-benzoyloxy-7βH-eudesman-2β,11-diol]	4.83
CC(=O)O[C@@]12C[C@@H](C(C)(C)O)C[C@@H](OC(=O)c3ccccc3)[C@@]1(CO)[C@H](O)[C@H](O)C[C@@]2(C)OC(C)=O (relative stereo) [compound 2, 4α,5α-diacetoxy-9α-benzoyloxy-7βH-eudesman-1β,2β,11,14-tetraol]	4.65

Reference: publication PMC3766860, “Two Novel Tyrosinase Inhibitory Sesquiterpenes Induced by CuCl2 from a Marine-Derived Fungus Pestalotiopsis sp. Z233” (Marine Drugs, 2013)
